What was measured:
Type in all cases: cell-based
[1] = target: T1, 12-LOX (Homo sapiens, UniProt P18054); experiment: 12-HETE formed in collagen-treated washed human platelets (12-LOX), HPLC; settings: for 12-LOX enzyme activity (% of control values, mean ± SD): n = 3
T1 construct: endogenous in cells; host or cells: washed human platelets
T1 sequence (P18054 1-663): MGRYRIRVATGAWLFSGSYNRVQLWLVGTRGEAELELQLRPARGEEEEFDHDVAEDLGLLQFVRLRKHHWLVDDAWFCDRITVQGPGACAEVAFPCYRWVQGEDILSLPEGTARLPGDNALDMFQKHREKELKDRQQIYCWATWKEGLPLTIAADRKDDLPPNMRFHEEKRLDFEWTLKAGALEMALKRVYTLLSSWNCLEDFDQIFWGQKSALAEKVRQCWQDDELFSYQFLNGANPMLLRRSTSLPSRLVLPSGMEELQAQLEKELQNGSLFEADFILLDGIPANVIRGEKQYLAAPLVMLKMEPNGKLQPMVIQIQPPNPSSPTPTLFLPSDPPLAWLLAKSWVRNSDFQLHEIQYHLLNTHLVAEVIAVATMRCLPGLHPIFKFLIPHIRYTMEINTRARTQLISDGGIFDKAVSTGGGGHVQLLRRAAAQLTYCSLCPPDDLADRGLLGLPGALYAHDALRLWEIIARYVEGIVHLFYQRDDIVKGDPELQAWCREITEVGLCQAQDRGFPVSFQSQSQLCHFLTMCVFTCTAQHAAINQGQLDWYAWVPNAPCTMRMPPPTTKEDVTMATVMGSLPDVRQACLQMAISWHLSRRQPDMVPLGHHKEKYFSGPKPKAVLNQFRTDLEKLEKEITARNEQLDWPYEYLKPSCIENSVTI
Description: (§1) 0.5 ml of platelet suspension was added to siliconized glass tubes (four at a time) and heated with magnetic stirring to 37° for 1 min in a platelet aggregometer (PAP-4C). Either vehicle alone (ethanol, 1 μl) or hepoxilin analog was then added, followed two min later by agonist (collagen: 2 μg; PGH2: 100 ng/0.5 ml; U46619: 10 ng/0.5 ml or I-BOP: 2 ng/0.5 ml). The response was recorded for the next 5 min. In experiments where analysis of TxB2 and HHT were to be made by HPLC, the platelet suspension at the end of the experiment was diluted with ethyl acetate, 100 ng of prostaglandin B1 was added as internal standard, and the mixture was acidified to pH 3 with 0.1 N HCl. After centrifugation, the organic layer was separated, washed twice with water to neutrality, and evaporated to dryness. Half of the sample was taken and was resuspended in 1 ml ethyl acetate containing 20 μg ADAM reagent, and was left in the dark for 2 h (38). The solvent was then evaporated and the residue was acetylated with a solution of pyridine/acetic anhydride (3/1, v/v) during 16 h at 23°. The reagents were evaporated to dryness and the residue was resuspended in acetonitrile/water for HPLC analysis. In experiments where the conversion of tritiated PGH2 was to be monitored, the procedure described above was repeated with tritiated PGH2 instead of unlabeled PGH2. After extraction of the sample as described above, the radiolabeled compounds were analyzed by TLC. Dose response curves for varying amounts of test compounds were generated and the data expressed as % inhibition of collagen-induced platelet aggregation. Each point was investigated 5 times and statistical analysis of the data was carried out using Macintosh Statview statistical software.
Measurement of eicosanoids formed by platelets during treatment with collagen or the TP receptor agonists in the presence or absence of PBT-3 was carried out by HPLC after appropriate derivatization with a fluorescent tag (anthracyl diazomethane—ADAM) which forms a fluorescent ester (44). The method was adapted to measure the following compounds: TxB2, HHT, 12-HETE and M. The platelet suspension at the end of the experiment was mixed with ethyl acetate, 100 ng of prostaglandin B1 was added as internal standard and the mixture was acidified to pH 3 with 0.1 N HCl. After centrifugation, the organic layer was separated, washed twice with water to neutrality, and evaporated to dryness. The residue was resuspended in ethyl acetate and half of the sample was taken. It was diluted to 0.2 ml with ethyl acetate containing 20 μg ADAM reagent, and was left in the dark for 2 h. The solvent was then evaporated and the residue was acetylated with a solution of pyridine/acetic anhydride (3/1, v/v) for 16 h at 23°. The reagents were evaporated to dryness and the residue was resuspended in acetonitrile/water for HPLC analysis. Dose response curves for varying amounts of test compounds were generated and the data were expressed as % inhibition of agonist-induced platelet aggregation. Each point was investigated 3 times and statistical analysis of the data was carried out using Macintosh Statview statistical software.
Analysis of the anthryl (ADAM)-acetate derivative of TxB2, HHT and 12 HETE in the extracted platelet samples was carried out on a Hewlett Packard (1100 series) HPLC to which was attached a Shimadzu fluorescent detector (RF-10AXL). The detector was operated with excitation at 364 nm, emission at 411 nm. […]

[2] = system: TxB2 formation; experiment: metabolism of [3H]-PGH2 to TxB2 by human platelets, TLC; settings: two doses of PBT-3, TLC profile
Description: as §1, with “The solvent was then evaporated and the residue was acetylated with a solution of pyridine/acetic anhydride (3/1, v/v) during 16 h at 23°. The reagents were evaporated to dryness and the residue was resuspended in acetonitrile/water for HPLC analysis.” left out, “Each point was investigated 5 times and statistical analysis of the data was carried out using Macintosh Statview statistical software.” left out

[3] = system: human platelets; experiment: collagen-evoked aggregation of washed human platelets
Description: Venous blood was obtained from healthy human subjects who had not taken NSAID's for at least two weeks. Blood was drawn into plastic syringes containing ACD. […] The platelet rich plasma was transferred into fresh plastic tubes and centrifuged at 400×g for 5 min. […] A platelet count was made, which determined the volume of platelet suspension needed to make up 350×10^6 cells for each measurement. The aliquot was diluted with medium to make 0.5 ml/assay/cuvette. Appropriate calibration of the aggregometer (PAP-4C) for 0% and 100% transmission was carried out through the use of a sample of platelet suspension and cell-free medium (37).
as §1

- 12-LOX enzyme activity (% of control values, mean ± SD) ([1]; PBT-3 0.05 μM): 79.4 ± 7.6 % of control
- 12-LOX enzyme activity (% of control values, mean ± SD) ([1]; PBT-3 0.30 μM): 85.2 ± 7.4^NS % of control
- 12-LOX enzyme activity (% of control values, mean ± SD) ([1]; PBT-3 0.60 μM): 73.0 ± 4.9 % of control
- 12-LOX enzyme activity (% of control values, mean ± SD) ([1]; PBT-3 3.00 μM): 102.5 ± 5.7^NS % of control
- IC50 ([3]; Homo sapiens, Platelet, washed human platelets, collagen 2 μg, read-out: IC50 for inhibition of collagen-evoked aggregation): ~800 nM
Compound: CCCCC/C=C\CC1CC1[C@@H](O)/C=C\C/C=C\CCCC(=O)OC (stereo partly drawn) [PBT-3, 10(S)-hydroxy-11,12-cyclopropyl-eicosa-5Z,8Z,14Z-trienoic acid methyl ester]
- inhibition of 12-LOX, in words ([1]; relatively large amounts of PBT-3, about 3-4 log doses greater than required to inhibit the TP receptor): Neither COX-1, COX-2,12-LOX nor Plase A2 was inhibited
- inhibition of formation of tritiated TxB2 from [3H]-PGH2 [2]: inhibitory action
- inhibition of collagen-evoked aggregation ([3]; single dose 1 μg added 2 min prior to collagen (2 μg), 350×10^6 washed human platelets in 0.5 ml): inhibited the collagen effect, with PBT-3 being the most potent

— patent US8071654B2, “Inhibitors of thromboxane formation and action” (priority 2000, dated 2011)
